Experimental data: US20250177383A1, “DI-CYCLOPROPYL BASED IL-17A MODULATORS AND USES THEREOF” (DICE ALPHA, INC., priority 2022, published 2025)

Legend:
[1] = Rat pharmacokinetics, PO; assay type: in vivo; details: male rat, PO 5 mg/kg oral gavage, plasma, Linear/log trapezoidal; read-out: Rat PO AUC0-t
Experimental: Formulations for PO. An appropriate amount of the test article is weighed and mixed with the appropriate volume of vehicle to get a clear solution or a uniform suspension, vortexing or sonication in water bath may used. Animals are dosed within four hours after the formulation is prepared.
Formulation samples are removed from each of the formulation solutions or suspensions, transferred into 1.5 mL of polypropylene microcentrifuge tubes and run dose validated by LC/UV or LC-MS/MS.
Dose administration. For PO dosing, the dose formulation is administered via oral gavage.
Blood Collection. Each blood collection (about 0.2 mL per time point) is performed from carotid artery cannula (CAC) of each animal into a pre-chilled commercial EDTA-K2 tubes as anti-coagulant, then placed on wet ice until centrifugation. Blood samples are processed for plasma by centrifugation at approximately 4° C., 3,200 g for 10 min. Plasma is collected respectively and a certain amount of plasma from rat is transferred into pre-labeled 96 well plate or polypropylene tubes, quick frozen over dry ice and kept at −60° C. or lower until LC-MS/MS analysis. After terminal collection, all plasmas are stored at approximately −80° C. freezer until final analysis.
Plasma concentration versus time data are plotted in graph and analyzed by non-compartmental approaches using the Phoenix WinNonlin 6.3 software program. Trapezoids: Before TMax (Linear); After Tmax (Log). Partial Area Interpolations: Before TMax (Linear); After Tmax (Log).

[2] = Microsomal stability, rat liver microsomes; assay type: in vitro ADME; details: SD rat liver microsomes 0.5 mg protein/mL, 1 μM test compound, NADPH, 37° C., 60 min; read-out: RLM Clint
Experimental: (§1) Test compound and control working solution preparation. 5 μL of a compound and control stock solution (10 mM in dimethyl sulfoxide (DMSO)) were diluted with 495 μL of acetonitrile (ACN).
(§2) NADPH cofactor preparation. The appropriate amount of NADPH powder was weighed and diluted into a 10 mM MgCl2 solution (working solution concentration: 10 mM; final concentration in reaction system: 1 mM). Materials: NADPH powder: β-Nicotinamide adenine dinucleotide phosphate reduced form, tetrasodium salt; NADPHA4Na (Vendor: Chem-Impex International, Cat. No. 00616).
(§3) Liver Microsome Preparation. The appropriate concentrations of microsome working solutions were prepared in 100 mM potassium phosphate buffer. Materials: Human Liver Microsomes (HLM) Cat No. 452117 and Lot No. 38295 (Corning); SD Rat Liver Microsomes (RLM) Cat No. R1000 and Lot No. 1910100 (Xenotech).
(§4) Stop solution preparation. Cold (4° C.) acetonitrile (ACN) containing 200 ng/mL tolbutamide and 200 ng/mL labetalol as internal standards (IS) were used as the stop solution.
(§5) Assay Procedure. Empty incubation plates (T60 and NCF60) were warmed for 10 mins prior to use. Liver microsomes were diluted to 0.56 mg/mL in 100 mM phosphate buffer. 445 uL microsome working solutions (0.56 mg/mL) were transferred into pre-warmed ‘Incubation’ plates T60 and NCF60, Then ‘Incubation’ plates T60 and NCF60 were pre-incubated for 10 min at 37° C. with constant shaking. 54 μL liver microsomes were transferred to the blank plate, then 6 μL NAPDH cofactor were added to the blank plate, followed by the addition 180 μL quenching solution to the blank plate. 5 μL compound working solution (100 μM) were added into ‘incubation’ plates (T60 and NCF60) containing microsomes and mixed thoroughly 3 times. To the NCF60 plate 50 μL of buffer were added and mixed 3 times thoroughly. Start timing; plate was incubated at 37° C. for 60 min while shaking. In ‘Quenching’ plate TO, were added 180 μL quenching solution and 6 μL NAPDH cofactor. Plate is chilled to prevent evaporation. The T60 plate, was mixed 3 times thoroughly, and immediately 54 μL of the mixture was removed for the 0-min time point to ‘Quenching’ plate. Then 44 μL NAPDH cofactor was added to the incubation plate (T60). Start timing; plate was incubated at 37° C. for 60 min while shaking. Final concentrations of each component in the incubation media: Microsome (0.5 mg protein/mL); Test compound (1 μM); control compound ([…]); ACN (0.99%); and DMSO (0.01%). At 5, 15, 30, 45, and 60 min, 180 μL quenching solution was added to ‘Quenching’ plates, mixed once, and serially transferred 60 μL of sample from T60 plate per time point to ‘Quenching’ plates. For the NCF60 plate, mix once and 60 μL of sample was transferred from the NCF60 incubation to ‘Quenching’ plate containing quenching solution at the 60-min time point (Start time 1:00:00 and End Time 0:00:00).
(§6) All sampling plates were shaken for 10 min, then centrifuged at 4000 rpm for 20 minutes at 4° C. 80 μL of supernatant were transferred into 240 μL HPLC water, and mixed by plate shaker for 10 min. Each bioanalysis plate was sealed and shaken for 10 minutes prior to LC-MS/MS analysis.

[3] = Microsomal stability, human liver microsomes; assay type: in vitro ADME; details: human liver microsomes 0.5 mg protein/mL, 1 μM test compound, NADPH, 37° C., 60 min; read-out: HLM Clint
Experimental: as §1, §2, §3, §4, §5, §6

[4] = biological target: T1, IL-17A/A (Homo sapiens, UniProt Q16552); assay: IL-17A/A HEK-Blue Cell Assay; assay type: cell-based; details: HEK-Blue IL-17 reporter cells, IL-17A/A stimulation, 20 hours, SEAP readout; read-out: IL17 AA HEK-5 pIC50 (converted)
T1 sequence (Q16552 24-155): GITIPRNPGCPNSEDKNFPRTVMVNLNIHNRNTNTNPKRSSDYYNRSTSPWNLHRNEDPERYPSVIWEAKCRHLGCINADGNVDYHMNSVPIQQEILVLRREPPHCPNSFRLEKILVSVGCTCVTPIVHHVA
Procedure, shortened: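 Cells co-expressing IL-17RA, IL-17RC and Act1 received titrated compound, top final 10 uM in 0.1% DMSO, immediately before IL-17A/A stimulation.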

[5] = biological target: T2, IL-17A/F (Homo sapiens, UniProt Q16552+Q96PD4); assay: IL-17A/F HEK-Blue Cell Assay; assay type: cell-based; details: HEK-Blue IL-17 reporter cells, IL-17A/F stimulation, 20 hours, SEAP readout; read-out: IL17AF HEK Blue pIC50 (converted)
T2 sequence (Q16552 24-155): T1 sequence (Q16552 24-155)
T2 sequence (Q96PD4 31-163): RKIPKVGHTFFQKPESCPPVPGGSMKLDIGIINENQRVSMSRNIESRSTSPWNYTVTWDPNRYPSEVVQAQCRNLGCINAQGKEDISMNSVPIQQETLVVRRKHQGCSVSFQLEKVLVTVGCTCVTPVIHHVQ

SMILES | AUC(0-t) [1] [ng·h/mL] | microsomal CLint at 1 μM [2] [µL/min/mg] | microsomal CLint at 1 μM [3] [µL/min/mg] | IC50 [4] [nM] | IC50 [5] [nM]
CCn1nccc1C(=O)N[C@H](C(=O)Nc1ccc([C@H](C)[C@@H](NC(C)=O)C(=O)N2CCN(C)[C@H](C)C2)cc1F)[C@H]1CC[C@H](C)CC1 [C, reference compound] | < 500 | > 20 | > 150 |  | 
CCn1nccc1C(=O)N[C@H](C(=O)Nc1ccc([C@H](C)[C@@H](NC(=O)[C@H](C)N(C)c2ncncn2)C(=O)N2CCN(C)[C@H](C)C2)cc1F)C(C1CC1)C1CC1 [Compound 305] |  |  |  | < 10 | < 10
CCn1nccc1C(=O)N[C@H](C(=O)Nc1ccc([C@H](C)[C@@H](NC(=O)[C@H](C)OC)C(=O)N2C[C@H]3C[C@@H](C2)N3C)cc1F)C(C1CC1)C1CC1 [Compound 307] |  |  |  | 10 to 100 | 100 to 10000
CO[C@@H](C)C(=O)N[C@@H](C(=O)N1CCN(C)[C@H](C)C1)[C@@H](C)c1ccc(NC(=O)[C@@H](NC(=O)c2nonc2C)C(C2CC2)C2CC2)c(F)c1 [Compound 308] |  |  |  | < 10 | 100 to 10000
CCOCCN(C)C(=O)N[C@@H](C(=O)N1CCN(C)[C@H](C)C1)[C@@H](C)c1ccc(NC(=O)[C@@H](NC(=O)c2ccnn2CC)C(C2CC2)C2CC2)c(F)c1 [Compound 313] |  |  |  | 10 to 100 | 100 to 10000
CCn1nccc1C(=O)N[C@H](C(=O)Nc1ccc([C@H](C)[C@@H](NC(=O)C(C2CC2)C2CC2)C(=O)N2CCN(C)[C@H](C)C2)cc1F)C(C1CC1)C1CC1 [Compound 319] |  |  |  | < 10 | 10 to 100
CCn1nccc1C(=O)N[C@H](C(=O)Nc1ccc([C@H](C)[C@@H](NC(=O)C(C2CC2)C2CC2)C(=O)N2CCN(C)CC2)cc1F)C(C1CC1)C1CC1 [Compound 330] |  |  |  | < 10 | 10 to 100
CO[C@@H](C)C(=O)N[C@@H](C(=O)N1CCN(C)[C@H](C)C1)[C@@H](C)c1ccc(NC(=O)[C@@H](NC(=O)c2ccnn2C2CC2)C(C2CC2)C2CC2)c(F)c1 [Compound 342] |  |  |  | < 10 | 10 to 100
COCC(=O)N[C@@H](C(=O)N1CCN(C)CC1)[C@@H](C)c1ccc(NC(=O)[C@@H](NC(=O)c2ccnn2C(C)C)C(C2CC2)C2CC2)c(F)c1 [Compound 345] |  |  |  | < 10 | 10 to 100
COCC(=O)N[C@@H](C(=O)N1CCN(C)CC1)[C@@H](C)c1ccc(NC(=O)[C@@H](NC(=O)c2nonc2C)C(C2CC2)C2CC2)c(F)c1 [Compound 346] |  |  |  | 10 to 100 | 100 to 10000
CO[C@@H](C)C(=O)N[C@@H](C(=O)N1CCN(C)CC1)[C@@H](C)c1ccc(NC(=O)[C@@H](NC(=O)c2nonc2C)C(C2CC2)C2CC2)c(F)c1 [Compound 347] |  |  |  | < 10 | 100 to 10000
CCn1nccc1C(=O)N[C@H](C(=O)Nc1ccc([C@H](C)[C@@H](NC(=O)[C@@H](C)F)C(=O)N2CCN(C)[C@H](C)C2)cc1F)C(C1CC1)C1CC1 [Compound 349] |  |  |  | < 10 | 100 to 10000
CCOC(=O)N[C@@H](CF)C(=O)N[C@@H](C(=O)N1CCN(C)CC1)[C@@H](C)c1ccc(NC(=O)[C@@H](NC(=O)C2(F)CC2)C(C2CC2)C2CC2)c(F)c1 [Compound 359] |  |  |  | < 10 | 100 to 10000
CCOC(=O)N[C@@H](CF)C(=O)N[C@@H](C(=O)N1CCN(C)CC1)[C@@H](C)c1ccc(NC(=O)[C@@H](NC(=O)c2nonc2C)C(C2CC2)C2CC2)c(F)c1 [Compound 360] |  |  |  | < 10 | 10 to 100
CCOC(=O)N[C@@H](CF)C(=O)N[C@@H](C(=O)N1CCN(C)[C@H](C)C1)[C@@H](C)c1ccc(NC(=O)[C@@H](NC(=O)c2nonc2C)C(C2CC2)C2CC2)c(F)c1 [Compound 363] |  |  |  | < 10 | 10 to 100
CCn1nccc1C(=O)N[C@H](C(=O)Nc1ccc([C@H](C)[C@@H](NC(=O)COC)C(=O)N2CCN(C)[C@H](C)C2)cc1F)[C@H]1CC[C@H](C)CC1 [D, reference compound] | 500 to 1000 | 9.6 to 20 | 50 to 150 |  | 

Now from value to compound:

AUC(0-t) [1] [ng·h/mL] | microsomal CLint at 1 μM [2] [µL/min/mg] | microsomal CLint at 1 μM [3] [µL/min/mg] | IC50 [4] [nM] | IC50 [5] [nM] | SMILES
500 to 1000 | > 20 | 50 to 150 |  |  | CCC(=O)N[C@@H](C(=O)N1C[C@@H](C)N(C)C[C@H]1C)[C@@H](C)c1ccc(NC(=O)[C@@H](NC(=O)c2ccnn2CC)[C@H]2CC[C@H](C)CC2)c(F)c1 [A, reference compound]
< 500 | 9.6 to 20 | 50 to 150 |  |  | CCn1nccc1C(=O)N[C@H](C(=O)Nc1ccc([C@H](C)[C@@H](NC(=O)COC)C(=O)N2CCN(C)[C@@H](CF)C2)cc1F)[C@H]1CC[C@H](C)CC1 [B, reference compound]
 |  |  | < 10 | < 10 | CCn1nccc1C(=O)N[C@H](C(=O)Nc1ccc([C@H](C)[C@@H](NC(=O)[C@H](C)Nc2ncccn2)C(=O)N2CCN(C)[C@H](C)C2)cc1F)C(C1CC1)C1CC1 [Compound 306]
 |  |  | 10 to 100 | 100 to 10000 | CCOCCN(C)C(=O)N[C@@H](C(=O)N1CCN(C)CC1)[C@@H](C)c1ccc(NC(=O)[C@@H](NC(=O)c2ccnn2CC)C(C2CC2)C2CC2)c(F)c1 [Compound 316]
 |  |  | < 10 | 100 to 10000 | CO[C@@H](C)C(=O)N[C@@H](C(=O)N1CCN(C)CC1)[C@@H](C)c1ccc(NC(=O)[C@@H](NC(=O)c2ccnn2C2CC2)C(C2CC2)C2CC2)c(F)c1 [Compound 341]
 |  |  | < 10 | 100 to 10000 | COCC(=O)N[C@@H](C(=O)N1CCN(C)[C@H](C)C1)[C@@H](C)c1ccc(NC(=O)[C@@H](NC(=O)c2nonc2C)C(C2CC2)C2CC2)c(F)c1 [Compound 348]
 |  |  | < 10 | 100 to 10000 | CCOC(=O)N[C@@H](CF)C(=O)N[C@@H](C(=O)N1CCN(C)[C@H](C)C1)[C@@H](C)c1ccc(NC(=O)[C@@H](NC(=O)C2(F)CC2)C(C2CC2)C2CC2)c(F)c1 [Compound 358]
 |  |  | < 10 | 10 to 100 | CCOC(=O)N[C@@H](C)C(=O)N[C@@H](C(=O)N1CCN(C)CC1)[C@@H](C)c1ccc(NC(=O)[C@@H](NC(=O)c2nonc2C)C(C2CC2)C2CC2)c(F)c1 [Compound 361]
